Target: GR complex
Test: [35S]TBPS binding assay (inhibition of [35S]TBPS binding, cerebral cortex P2 homogenate)
Design: species or system rat
Conditions: for IC50: 2 nM [35S]TBPS, rat cerebral cortex P2 homogenate; for IMAX: maximum inhibition of [35S]TBPS binding
Procedure: We performed several experiments to determine the nature of the modulation of [^35S]TBPS as affected by the compounds of the invention.
These procedures were performed as follows:
Brains from male Sprague-Dawley rats were removed immediately following sacrifice and the cerebral cortices dissected over ice. […] Briefly, the cortices were gently homogenized in 0.32 M sucrose followed by centrifugation at 1000 x g for 10 minutes. The supernatant was collected and centrifuged at 9000 x g for 20 minutes. The resultant P2 pellet was suspended as a 10% (original wet weight/volume) suspension in 50 mM Na/K phosphate buffer (pH 7.4) 200 mM NaCl to form the homogenate.
One hundred microliter […] aliquots of the P2 homogenate (0.5 milligrams (mg) protein) were incubated with 2 nanomolar (nM) [^35S]TBPS (70-110 curies/millimole; New England Nuclear, Boston, MA) in the presence or absence of the naturally occurring steroids or their synthetic derivatives to be tested. The tested compounds were dissolved in dimethylsulfoxide (Baker Chem. Co., Phillipsbury, NJ) and added to the incubation mixture in 5 µL aliquots. The incubation mixture was brought to a final volume of 1 mL with buffer. Non-specific binding was defined as binding in the presence of […] TBPS. The effect and specificity of GABA (Sigma Chem. Co., St. Louis, MO) was evaluated by performing all assays in the presence of GABA plus (+)bicuculline (Sigma Chem. Co.). maintained at 25°C for 90 minutes (steady state conditions) were terminated by rapid filtration through glass fiber filters (No. 32, Schleicher and Schuell, Keene, NH). Filter-bound radioactivity was quantitated by liquid scintillation spectrophotometry.
Various compounds were screened to determine their potential as modulators of [^35S]TBPS binding in vitro. These assays were performed in accordance with the above discussed procedures. […] It is an indication of a compound's in vitro potency. Maximum inhibition is an indication of a compound's in vitro efficacy.

SMILES | IC50 [nM] | IMAX [%]
CC(=O)[C@H]1CC[C@H]2[C@@H]3CC[C@@H]4C[C@@](O)(C#Cc5ccc(C(F)(F)F)cc5)CC[C@]4(C)[C@H]3CC[C@]12C [3α-hydroxy-3β-(4'-trifluoromethylphenylethynyl)-5β-pregnan-20-one] | 52 | 87
C[C@]12CC[C@](O)(C#CCCO)C[C@H]1CC[C@@H]1[C@@H]2CC[C@]2(C)[C@@H](C(=O)Cn3ccnn3)CC[C@@H]12 [3α-hydroxy-3β-(4-hydroxybutyn-1-yl)-21-(1,2,3-triazol-1-yl)-5β-pregnan-20-one] | 79 | 96
CC12CCC(O)(C#CCCO)CC1CCC1C2CCC2(C)C(C(=O)Cn3cncn3)CCC12 (stereo not drawn) [3α-hydroxy-3β-(4-hydroxybutyn-1-yl)-21-(1,2,4-triazol-1-yl)-5β-pregnan-20-one] | – | 96
C[C@]12CC[C@H]3[C@@H](CC[C@@H]4C[C@@](O)(C#CCCO)CC[C@@H]43)[C@@H]1CC[C@@H]2C(=O)Cn1ccnn1 [3α-hydroxy-3β-(4-hydroxybutyn-1-yl)-21-(1H-1,2,3-triazol-1-yl)-5β-19-norpregnan-20-one] | 124 | 95
C[C@]12CC[C@H]3[C@@H](CC[C@@H]4C[C@@](O)(C#CCCO)CC[C@@H]43)[C@@H]1CC[C@@H]2C(=O)Cn1nccn1 [3α-hydroxy-3β-(4-hydroxybutyn-1-yl)-21-(2H-1,2,3-triazol-2-yl)-5β-19-norpregnan-20-one] | 56 | 93
C[C@]12CC[C@](O)(C#CCCO)C[C@H]1CC[C@@H]1[C@@H]2CC[C@]2(C)[C@@H](C(=O)Cn3cnnn3)CC[C@@H]12 [3α-hydroxy-3β-(4-hydroxybutyn-1-yl)-21-(tetrazol-1-yl)-5β-pregnan-20-one] | 93 | 101
CC1(O)CCC2(C)C(CCC3C2CCC2(C)C(C(=O)Cn4nccn4)CCC32)C1 (stereo not drawn) [3α-hydroxy-3β-methyl-21(2'H-1',2',3'-triazol-2'-yl)-5α-pregnan-20-one] | 85 | 99
C[C@@]1(O)CC[C@@]2(C)[C@@H](CC[C@@H]3[C@@H]2CC[C@]2(C)[C@@H](C(=O)Cn4ccnn4)CC[C@@H]32)C1 [3α-hydroxy-3β-methyl-21-(1',2',3'-triazol-1'-yl)-5α-pregnan-20-one] | 136 | 99
CC(=O)[C@H]1CC[C@H]2[C@@H]3CC[C@@H]4C[C@@](O)(C#Cc5ccccc5)CC[C@]4(C)[C@H]3CC[C@]12C [3α-hydroxy-3β-phenylethynyl-5β-pregnan-20-one] | 98 | 101
CC12CCC(O)CC1CCC1C2CCC2(C)C(C(=O)Cn3cnc4ccccc43)CCC12 (stereo not drawn) [3α-hydroxy-21-(1'-benzimidazolyl)5β-pregnan-20-one] | 53 | 100
C[C@]12CC[C@@H](O)C[C@@H]1CC[C@@H]1[C@@H]2CC[C@]2(C)[C@@H](C(=O)Cn3ccnc3)CC[C@@H]12 [3α-hydroxy-21-(1'-imidazolyl)-5α-pregnan-20-one] | 71 | 99
C[C@]12CC[C@@H](O)C[C@@H]1CC[C@@H]1[C@@H]2CC[C@]2(C)[C@@H](C(=O)Cn3cccn3)CC[C@@H]12 [3α-hydroxy-21-(1'-pyrazolyl)-5α-pregnan-20-one] | 100 | 98
C[C@]12CC[C@@H](O)C[C@H]1CC[C@@H]1[C@@H]2CC[C@]2(C)[C@@H](C(=O)Cn3cnnn3)CC[C@@H]12 [3α-hydroxy-21-(1'H-1,2,3,4-tetrazol-1'-yl)-5β-pregnan-20-one] | 227 | 60
C[C@]12CC[C@@H](O)C[C@H]1CC[C@@H]1[C@@H]2CC[C@]2(C)[C@@H](C(=O)Cn3cnc4ncncc43)CC[C@@H]12 [3α-hydroxy-21-(7'H-purin-7'-yl)-5β-pregnan-20-one] | 430 | 71
C[C@]12CC[C@@H](O)C[C@H]1CC[C@@H]1[C@@H]2CC[C@]2(C)[C@@H](C(=O)Cn3cnc4cncnc43)CC[C@@H]12 [3α-hydroxy-21-(9'H-purin-9'-yl-5β-pregnan-20-one] | 69 | 59

Source: patent EP1038880B1, “Androstanes and pregnanes for allosteric modulation of GABA receptor” (priority 1994, dated 1995)
